Active and inactive are the calls of the source.
Experiments:
[1] = growth suppression of beta-catenin-knockout colon cells, dose response, cell-based, HCT116, human colon tumor (AID 1045); format: functional;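 note: HCT116 colon tumor cells with beta catenin knocked out; cells exposed to compound for 60 hours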
[2] = growth suppression of PTEN-null colon cells, dose response, cell-based, HCT116 PTEN knockout (AID 1047); format: functional;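 note: HCT116 colon tumor cells with PTEN knocked out; cells exposed to compound for 60 hours before readout; potency for loss of cell viability measured by luminescence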
[3] = biological target: T1, Heat shock factor protein 1 (Mus musculus, UniProt P38532); test: HSF1 potentiators in luciferase reporter cells, confirmation, cell-based, NIH3T3, luminescence, dose retest (AID 435004); format: functional;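 note: stress induced by proteasome inhibitor MG132 added 30 min after compound; luciferase reporter driven by HSF1 response element in NIH3T3 cells; actives raise luminescence as potentiators of the MG132 stress response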
T1 sequence (P38532 whole entry): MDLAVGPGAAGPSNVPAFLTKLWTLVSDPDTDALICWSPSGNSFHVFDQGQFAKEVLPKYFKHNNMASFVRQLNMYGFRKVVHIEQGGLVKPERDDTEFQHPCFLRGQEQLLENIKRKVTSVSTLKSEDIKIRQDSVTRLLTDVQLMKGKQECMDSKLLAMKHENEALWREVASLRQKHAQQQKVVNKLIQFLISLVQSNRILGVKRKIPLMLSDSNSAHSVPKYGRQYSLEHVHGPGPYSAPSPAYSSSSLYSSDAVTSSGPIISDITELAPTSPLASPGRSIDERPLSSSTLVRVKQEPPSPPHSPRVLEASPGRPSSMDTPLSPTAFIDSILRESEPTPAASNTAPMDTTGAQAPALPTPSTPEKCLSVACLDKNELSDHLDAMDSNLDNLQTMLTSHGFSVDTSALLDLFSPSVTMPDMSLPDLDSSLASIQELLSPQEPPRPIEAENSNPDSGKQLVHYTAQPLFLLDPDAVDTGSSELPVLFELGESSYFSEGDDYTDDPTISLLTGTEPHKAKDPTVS

[4] = tested on: INS1; test: beta cell apoptosis inhibitors, cytokine rescue, dose response, luminescence, retest (AID 449756); format: functional, cell-based; settings: Rattus norvegicus;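 note: cell death triggered by IL-1 beta plus TNF-alpha plus IFN-gamma mixture; protective hits raise ATP signal compared with cytokine alone wells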
[5] = NIH-3T3 fibroblast cytotoxicity, dose response, cytotoxicity control, cell-based, fluorescence, Alamar Blue, secondary assay (AID 2327); format: functional;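 note: NIH-3T3 mouse fibroblasts cultured with fluconazole at 8 µg/mL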
[6] = C. albicans growth with fluconazole, confirmation, fluorescence, retest (AID 2467); format: functional, cell-based
[7] = cells; format: functional
[8] = tested on: Streptococcus sp. 'group A'; test: growth inhibition of control SK(-) GAS strain, dose response, counter-screen for streptokinase expression inhibitor project, luminescence, kanamycin, BacTiterGlo, confirmation (AID 1900); format: functional, organism-based
[9] = tested on: Streptococcus; test: Group A Streptococcus viability loss, dose response, counter-screen for streptokinase expression inhibitor project, luminescence, BacTiterGlo (AID 1915); format: functional, organism-based;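 note: potency for reduction of bacterial viability or growth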
[10] = biological target: T2, Streptokinase A (Streptococcus pyogenes serotype M1, UniProt P10520); test: S. pyogenes streptokinase expression inhibitors, potency, dose response, plasminogen activation absorbance, OD405 (AID 1914); format: functional, Streptococcus pyogenes M1 GAS;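 note: secreted streptokinase activity via plasminogen activation per viability signal from cell pellet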
T2 sequence (P10520 whole entry): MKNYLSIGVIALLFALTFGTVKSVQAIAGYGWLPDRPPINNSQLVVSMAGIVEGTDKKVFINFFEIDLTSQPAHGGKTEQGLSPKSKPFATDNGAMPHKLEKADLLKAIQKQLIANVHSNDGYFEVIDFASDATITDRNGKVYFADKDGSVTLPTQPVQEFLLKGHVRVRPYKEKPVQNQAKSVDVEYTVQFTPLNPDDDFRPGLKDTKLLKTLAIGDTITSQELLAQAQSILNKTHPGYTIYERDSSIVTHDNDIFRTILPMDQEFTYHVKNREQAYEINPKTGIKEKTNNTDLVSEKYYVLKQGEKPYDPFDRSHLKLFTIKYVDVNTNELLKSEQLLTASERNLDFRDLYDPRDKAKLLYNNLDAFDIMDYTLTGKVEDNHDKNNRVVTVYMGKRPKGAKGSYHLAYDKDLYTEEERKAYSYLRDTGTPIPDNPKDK

[11] = biological target: Paired box protein Pax-8 (Homo sapiens, UniProt Q06710); test: inhibitors of PAX8-driven TPO luciferase reporter, dose response, RMG-I cells, cherry-pick (AID 687027); format: functional, cell-based;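 note: luciferase reporter driven by Pax8 target thyroperoxidase promoter measured by SteadyGlo luminescence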
[12] = inhibitors of HIV Env-driven cell fusion, dose response, cherry-pick (AID 652057); format: functional, cell-based
[13] = ZM109 Env clade C HIV-1 fusion inhibitors, dose response, HeLa effector, CEM target cells, luciferase, cherry-pick (AID 652058); format: functional, cell-based

Sequence of Paired box protein Pax-8 (Q06710 whole entry, the tested form may be a part): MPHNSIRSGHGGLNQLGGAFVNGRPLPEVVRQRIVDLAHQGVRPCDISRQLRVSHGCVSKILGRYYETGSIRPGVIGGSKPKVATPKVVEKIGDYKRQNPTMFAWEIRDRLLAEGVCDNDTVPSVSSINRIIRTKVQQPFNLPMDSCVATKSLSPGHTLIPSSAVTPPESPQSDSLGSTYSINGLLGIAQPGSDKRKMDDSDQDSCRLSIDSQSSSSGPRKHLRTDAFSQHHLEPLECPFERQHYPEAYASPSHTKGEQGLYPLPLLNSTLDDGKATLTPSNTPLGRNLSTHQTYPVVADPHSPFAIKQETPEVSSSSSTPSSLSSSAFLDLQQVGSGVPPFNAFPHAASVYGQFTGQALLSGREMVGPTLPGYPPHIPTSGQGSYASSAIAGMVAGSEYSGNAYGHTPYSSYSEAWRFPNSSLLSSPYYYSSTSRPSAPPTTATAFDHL

Structure (SMILES): CCOc1ccccc1N=C(S)N(Cc1cc2ccc(C)cc2nc1O)CC1CCCN1CC (centres undefined)
- EC50 [1]: 17.4 µM (active)
- EC50 [2]: 20.5 µM (active)

Structure (SMILES): C/C=C/c1c(F)c(F)c(Oc2ccc(C(=O)O)cc2)c(F)c1F
- EC50 [3]: > 260 µM (inactive)

Structure (SMILES): Cc1occc1C(=O)N1CCCC(N2CCN(c3cccc(C(F)(F)F)c3)CC2)C1 (centres undefined)
- AC50 [4]: 111 µM (active)

Structure (SMILES): CC(C)CN(C(=O)COC(=O)C12CC3CC(CC(Cl)(C3)C1)C2)c1c(N)n(Cc2ccccc2)c(=O)[nH]c1=O
- AC50 [4]: 7.15 µM (active)

Structure (SMILES): COCCCN1C(=O)C(O)=C(C(=O)c2ccc(OCC(C)C)cc2C)C1c1cccnc1 (centres undefined)
- EC50 [5]: > 150 µM (inactive)
- EC50 [6]: > 38 µM (not active)

Structure (SMILES): Cc1nn2c(O)c3c(nc2c1-c1ccccc1)CCCC3
- IC50 [7]: 11.8 µM (active)

Structure (SMILES): Fc1ccccc1N=C(S)N1CCN(c2ccccn2)CC1
- EC50 [3]: > 260 µM (inactive)

Structure (SMILES): O=C(NC1CCCCC1)c1cc([N+](=O)[O-])n[nH]1
- EC50 [5]: 154 µM (active)
- EC50 [6]: 1.66 µM (active)

Structure (SMILES): COCCCNC(=O)COC(=O)c1ccc(-c2nc3ccccc3s2)s1
- IC50 [7]: 10.5 µM (active)

Structure (SMILES): O=C(Cc1nc2ccccc2nc1O)c1ccc(Cl)cc1
- EC50 [3]: 198 µM (inconclusive)

Structure (SMILES): O=C(c1ccc(Br)cc1)N1CCCC(c2nc(-c3cccs3)no2)C1 (centres undefined)
- EC50 [3]: > 260 µM (inactive)

Structure (SMILES): CC(=O)OCC1=C(C(=O)O)N2C(=O)C(NC(=O)c3ccc(F)cc3)C2SC1 (centres undefined)
- EC50 [8]: 3.94 µM (active)
- EC50 [9]: 7.79 µM (active)
- EC50 [10]: > 150 µM (not active)

Structure (SMILES): CCOC(=O)c1c(C)oc2c1c(C(c1ccccc1)N1CCOCC1)c(O)c1ccccc12 (centres undefined)
- EC50 [8]: 3.16 µM (active)
- EC50 [9]: 5.32 µM (active)
- EC50 [10]: 0.886 µM (active)

Structure (SMILES): c1ccc2c(Nc3nc4c(s3)CCCC4)cccc2c1
- EC50 [8]: 14.4 µM (active)
- EC50 [9]: > 150 µM (not active)
- EC50 [10]: 19.6 µM (inconclusive)

Structure (SMILES): COc1cc(OC)cc(-c2nc3ccccc3c(=O)o2)c1
- IC50 [7]: 8.58 µM (active)

Structure (SMILES): O=C1CCC(/C=C/c2ccccc2)=NN1
- EC50 [3]: > 260 µM (inactive)

Structure (SMILES): COCCn1c(SCC(=O)NC2CCCCC2)nc2c(c1=O)SCC2
- EC50 [3]: > 260 µM (inactive)

Structure (SMILES): Nc1c(Cl)ncnc1N/N=C/c1ccccn1
- AC50 [4]: 0.521 µM (active)

Structure (SMILES): C[C@H]1CCCCO[C@H](CN(C)Cc2ccc(C(F)(F)F)cc2)[C@@H](C)CN([C@@H](C)CO)C(=O)c2cc(NC(=O)Nc3ccc(F)cc3)ccc2O1
- AC50 [11]: 10.6 µM (active)

Structure (SMILES): COc1ccc(S(=O)(=O)N[C@H]2C=C[C@H](CC(=O)N3CCN(c4ccccc4)CC3)O[C@@H]2CO)cc1
- AC50 [12]: 26.7 µM (active)
- AC50 [13]: 36.8 µM (active)

Structure (SMILES): C[C@H](CO)N1C[C@H](C)[C@H](CN(C)S(=O)(=O)c2cccs2)OCCCC[C@H](C)Oc2ccc(NC(=O)NC3CCCCC3)cc2C1=O
- AC50 [11]: 10.7 µM (active)

Structure (SMILES): Cc1cccc(-c2ccc([C@H]3[C@H](CO)N4CCCCN(S(=O)(=O)c5ccccc5C)C[C@@H]34)cc2)c1
- AC50 [11]: 11.4 µM (active)

Structure (SMILES): CSCC[C@H](NC(=O)OC(C)(C)C)C(=O)N/N=C/c1cc2ccc(C)cc2nc1Cl
- EC50 [1]: 17.7 µM (active)
- EC50 [2]: 18.7 µM (active)
